Experiment [1] concerns the target T1, Monoglyceride lipase (Homo sapiens) (UniProt Q99685).
T1 sequence (whole entry): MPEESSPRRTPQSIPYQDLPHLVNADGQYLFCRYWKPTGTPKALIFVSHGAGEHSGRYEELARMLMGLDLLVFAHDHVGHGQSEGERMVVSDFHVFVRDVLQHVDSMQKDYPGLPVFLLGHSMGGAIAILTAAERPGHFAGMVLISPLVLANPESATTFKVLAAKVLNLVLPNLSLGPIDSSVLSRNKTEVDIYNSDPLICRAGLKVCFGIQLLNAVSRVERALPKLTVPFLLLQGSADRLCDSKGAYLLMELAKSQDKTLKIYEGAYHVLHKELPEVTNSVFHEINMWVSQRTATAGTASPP
The following applies: dose 8.0 nM, time 60.0 min.

In a further experiment the test system is COLO 205. In words: Antiproliferative activity against human COLO205 cells assessed as inhibition of cell viability for 96 hrs by cell titre glo luminescence assay. In kind it is functional, cell-based. The following applies: COLO 205, 96 h.
Another experiment relates to HT-29. The experiment can be described thus: Antiproliferative activity against human HT-29 cells assessed as inhibition of cell viability for 96 hrs by cell titre glo luminescence assay. The following applies: HT-29, 96 h. The class given is functional, cell-based.
Experiment [2] addresses T2, Monoglyceride lipase (Homo sapiens, UniProt Q99685).
T2 sequence (Q99685 whole entry): T1 sequence (whole entry)
Description: Inhibition of human recombinant MAGL using 4-NPA as substrate by microplate reader method

A further experiment has as its system OVCAR-5. The experiment can be described thus: Antiproliferative activity against human OVCAR-5 cells assessed as inhibition of cell viability for 96 hrs by cell titre glo luminescence assay. In kind it is functional, cell-based. The following applies: OVCAR-5, 96 h.
The subject of a further experiment is HCT-116. The experiment can be described thus: Antiproliferative activity against human HCT-116 cells assessed as inhibition of cell viability for 96 hrs by cell titre glo luminescence assay. The class given is functional, cell-based. The following applies: HCT-116, 96 h.
The target of experiment [3] is T1, Monoglyceride lipase (Homo sapiens). The following applies: dose 320.0 nM, time 60.0 min.
For the next experiment, the system named is COLO 201. In words: Antiproliferative activity against human COLO201 cells assessed as inhibition of cell viability for 96 hrs by cell titre glo luminescence assay. In kind it is functional, cell-based. The following applies: COLO 201, 96 h.
The next experiment deals with MDA-MB-231. In words: Antiproliferative activity against human MDA-MB-231 cells assessed as inhibition of cell viability for 96 hrs by cell titre glo luminescence assay. In kind it is functional, cell-based. The following applies: MDA-MB-231, 96 h.
A further experiment has as its system OVCAR-3. In words: Antiproliferative activity against human OVCAR-3 cells assessed as inhibition of cell viability for 96 hrs by cell titre glo luminescence assay. The class given is functional, cell-based. The following applies: OVCAR-3, 96 h.
A further experiment concerns KURAMOCHI
In words: Antiproliferative activity against human KURAMOCHI cells assessed as inhibition of cell viability for 96 hrs by cell titre glo luminescence assay. In kind it is functional, cell-based.

In experiment [4] the target is T2, Monoglyceride lipase. This is another data set of the same source.
Description: Inhibition of human recombinant MAGL assessed as dissociation constant using 4-NPA as substrate
The next experiment concerns SK-OV-3. The experiment can be described thus: Antiproliferative activity against human SK-OV-3 cells assessed as inhibition of cell viability for 96 hrs by cell titre glo luminescence assay. The class given is functional, cell-based. The following applies: SK-OV-3, 96 h.

Results on 4 molecules are retold here after ChEMBL document CHEMBL4831497, “Monoacylglycerol lipase (MAGL) inhibitors based on a diphenylsulfide-benzoylpiperidine scaffold” (Eur J Med Chem, 2021).

pIC50, pKi: −log10 of the molar value. Calls of active or inactive are those of the source. The calls are words filed in the database; no cut-off is given here.

Take `O=C(c1ccc(Sc2cccc(Cl)c2)cc1)C1CCN(C(=O)c2cc(O)ccc2F)CC1`: the inhibition entry in [1] and in experiment [3] was “Active” each time. Moreover, the pIC50 – broadly, the negative decadic logarithm of the IC50, by convention in mol/L – was 5.06 with COLO 205; 5.05 in the experiment with HT-29; 8.82 at Monoglyceride lipase [2]; 5.43 in the experiment with OVCAR-5; 5.12 with HCT-116; 5.06 in the experiment on COLO 201. Moreover, the pIC50 is 5.57 in the experiment with MDA-MB-231, 4.92 in the experiment on OVCAR-3, 5.15 with KURAMOCHI and 5.06 with SK-OV-3. Moreover, on Monoglyceride lipase [4], the pKi (as a rule, −log10 of the Ki, conventionally taken in molar units) is 8.94.
For `O=C(c1ccc(Cl)cc1)C1CCN(C(=O)c2cccc(O)c2)CC1`, the pIC50 in the experiment with COLO 205 was 4.10; in the experiment on HT-29 it was 5.16; with OVCAR-5, 5.00; in the experiment with HCT-116, 4.07; with COLO 201 it was 4.08; in the experiment with MDA-MB-231, 4.15. Also, the pIC50 in the experiment on OVCAR-3 is 4.03; in the experiment on KURAMOCHI it was 4.12; in the experiment on SK-OV-3 it was 4.08.
Take `O=C(c1ccc(Sc2cccc(C(F)(F)F)c2)cc1)C1CCN(C(=O)c2cc(O)ccc2F)CC1`: the pIC50 is 5.48 in the experiment with COLO 205; 5.08 with HT-29; 6.49 in the experiment with OVCAR-5; 5.48 in the experiment with HCT-116; 5.54 in the experiment with COLO 201; 5.27 in the experiment on MDA-MB-231. The values for the pIC50 in the experiment on OVCAR-3, with KURAMOCHI and in the experiment with SK-OV-3 were 5.24, 5.48 and 5.36, respectively.
For `O=C(c1ccc(Sc2cccc(OC(F)(F)F)c2)cc1)C1CCN(C(=O)c2cc(O)ccc2F)CC1`, the inhibition entry in experiment [1] and in experiment [3] was “Active” throughout. Further, the pIC50 in the experiment with COLO 205 was 5.66; in the experiment on HT-29, 5.60; at Monoglyceride lipase [2], 8.73; with OVCAR-5, 6.11; in the experiment with HCT-116 it was 5.47; in the experiment with COLO 201 it was 5.48. Also, the pIC50 is 5.00 in the experiment with MDA-MB-231, 5.07 in the experiment on OVCAR-3, 5.43 in the experiment with KURAMOCHI and 5.36 with SK-OV-3. The molecule further had a pKi at Monoglyceride lipase [4] of 8.95.
